Measurements reported in patent publication US20030215888A1, “Androgen receptor overexpressing skeletal myoblasts” (Pfizer Inc., priority 2002, published 2003).

Experiments:
C2hAR57 cells = test: [3H]-thymidine uptake assay, C2hAR57 cells; format: cell-based, mouse; settings: for effect on [3H]-thymidine uptake: 48 hours exposure
Protocol: After 48 hours exposure to the test agents, medium containing 0.1 μCi [^3H]-thymidine (82 Ci/mmol, Amersham, Buckinghamshire, UK) per well was added and incubation was continued for two additional hours at 37° C. The assay was terminated by aspirating the culture medium and washing with ice-cold phosphate buffered saline followed by 5% trichloroacetic acid. The cells where then lysed by applying 0.3 N NaOH (75 μl per well) followed by 0.3 N HCl (75 μl per well) to neutralize the NaOH. The radioactivity in 50-μl aliquots was determined by liquid scintillation counting in 96-well plates (Packard Instrument Corporation) using a TopCount™ Scintillation Counter (Packard Instrument Corporation).

androgen receptor = target: T1, androgen receptor (Homo sapiens, UniProt P10275); settings: read-out: IC50 (known affinities for the androgen receptor); printed beside rank order potency on inhibition of [3H]-thymidine uptake; cited from earlier work
T1 sequence (P10275 1-920): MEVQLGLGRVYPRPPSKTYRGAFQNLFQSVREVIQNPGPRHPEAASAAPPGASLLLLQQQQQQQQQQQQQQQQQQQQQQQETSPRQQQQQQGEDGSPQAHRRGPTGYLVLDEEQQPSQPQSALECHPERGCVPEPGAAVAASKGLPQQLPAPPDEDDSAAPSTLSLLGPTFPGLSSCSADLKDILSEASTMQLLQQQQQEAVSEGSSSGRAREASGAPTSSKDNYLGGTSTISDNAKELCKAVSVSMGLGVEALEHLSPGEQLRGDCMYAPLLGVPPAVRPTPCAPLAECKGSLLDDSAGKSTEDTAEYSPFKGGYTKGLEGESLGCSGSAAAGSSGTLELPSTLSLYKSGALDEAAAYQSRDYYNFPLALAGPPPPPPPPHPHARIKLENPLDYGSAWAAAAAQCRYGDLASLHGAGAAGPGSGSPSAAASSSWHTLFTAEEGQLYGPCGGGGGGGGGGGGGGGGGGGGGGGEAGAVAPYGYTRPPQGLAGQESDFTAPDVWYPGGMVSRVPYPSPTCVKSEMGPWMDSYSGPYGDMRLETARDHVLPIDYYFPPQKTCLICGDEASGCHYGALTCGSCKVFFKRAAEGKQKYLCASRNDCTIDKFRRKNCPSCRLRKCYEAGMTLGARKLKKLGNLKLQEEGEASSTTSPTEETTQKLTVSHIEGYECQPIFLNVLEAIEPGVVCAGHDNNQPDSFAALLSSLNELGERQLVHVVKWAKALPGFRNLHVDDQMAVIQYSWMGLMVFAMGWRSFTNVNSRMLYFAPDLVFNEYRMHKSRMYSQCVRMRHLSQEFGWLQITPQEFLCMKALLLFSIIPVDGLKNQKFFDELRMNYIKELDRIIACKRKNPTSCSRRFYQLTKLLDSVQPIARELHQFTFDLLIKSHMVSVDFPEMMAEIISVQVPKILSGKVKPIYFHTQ

| Compound | reversal of the inhibition of [3H]-thymidine uptake by 0.1 nM DHT (C2hAR57 cells; concomitant addition with 0.1 nM DHT) | effect on [3H]-thymidine uptake (C2hAR57 cells) | IC50 (androgen receptor) [nM] |
| --- | --- | --- | --- |
| CC(C)(O)C(=O)Nc1ccc([N+](=O)[O-])c(C(F)(F)F)c1 [2-hydroxyflutamide] | completely reversed | – | – |
| C[C@]12COC(=O)C[C@@H]1CC[C@@H]1[C@@H]2CC[C@@]2(C)[C@H]1CC[C@]2(C)O [oxandrolone] | – | dose-dependent inhibitory effects | 28.4 |
| C[C@]12Cc3c[nH]nc3C[C@@H]1CC[C@@H]1[C@@H]2CC[C@@]2(C)[C@H]1CC[C@]2(C)O [stanozolol] | – | dose-dependent inhibitory effects | – |
| C[C@]12CC[C@H]3[C@@H](CCC4=CC(=O)CC[C@@]43C)[C@@H]1CC[C@@H]2O [testosterone] | – | dose-dependent inhibitory effects | – |
